# Measurements taken from US10845371B2, “Soluble MANF in pancreatic beta-cell disorders” (University of Massachusetts, priority 2012, dated 2020).
# Ends that are not written are not given here. Peptide text beside a SMILES is read from it. * marks the point of attachment. Cbz = O=C(OCc1ccccc1)*
# How the values were obtained:
# [1] = system: MEROS-GFP (ER redox state) in INS-1 832/13 cells; test: MEROS-GFP ratio by fluorescent plate reader in INS-1 832/13 cells; type: cell-based, rat; details: 30 minutes; H2O2 0.1 or 1 mM, DTT 0.1-10 mM, FIG. 12
# Procedure: FIG. 12 is a graph of the MEROS-GFP ratio in INS-1 832/13 cells left untreated (no label), or treated with H2O2 (1 or 0.1 mM H2O2) or DTT (0.1, 0.2, 0.5, 1, 2, 5, or 10 mM DTT). The MEROS-GFP ratio was determined using a plate reader. The data shown are mean±S.D. (n=3).
# The ratio between fluorescence from excitation 473 nm versus 394 nm normalized to wild-type untreated cells is called the MEROS-GFP ratio. The MEROS-GFP ratio was determined using a fluorescent plate reader. In these experiments, the INS-1 832/13 cells were plated onto a 96-well plate at 50,000 cells/well, the cells treated with H2O2 or DTT at various concentrations for 30 minutes, and the fluorescence at excitation wavelength 473 nm and emission wavelength 510 nm (for reduced MEROS-GFP) or at excitation wavelength 394 nm and emission wavelength 510 nm (for oxidized MEROS-GFP) was measured. The MEROS-GFP ratio was determined after substraction of background signal.
# [2] = system: MEROS-GFP in INS-1 832/13 cells; test: Confocal microscopy of MEROS-GFP fluorescence; type: cell-based, rat; details: 2 mM DTT, FIG. 11
# Procedure: FIG. 11 is a set of four confocal microscopy images of MEROS-GFP gathered using a 476-nm excitation wavelength (bottom two panels) or a 405-nm excitation wavelength (top two panels) in INS-1 832/13 cells treated with (right two panels) or without (left two panels) 2 mM DTT.
# [3] = system: MEROS-GFP (ER redox state) in INS-1 832/13 cells; test: MEROS-GFP pilot screen of 1280-compound library and follow-up screens; type: cell-based, rat; details: 0.2 mM DTT challenge for 2 hours, 96-well plates; untreated 0.037
# Procedure: A pilot screen of a 1280-compound library (MicroSource), a collection of 1,040 U.S. drugs and 240 international drugs (FIG. 39) was performed. In this experiment, INS-1 832/13 cells stably-expressing MEROS-GFP were seeded (20,000 cells/well) in black optical 96-well plates. After 24 hours, 2 μL of each compound was added using the TeMo liquid handling robot. After another 24 hours, cells were challenged with 0.2 mM DTT, a strong reducing agent, for 2 hours, and then the MEROS-GFP ratio was calculated.
# [4] = system: MEROS-GFP in INS-1 832/13 cells; test: Non-reducing SDS-PAGE of AMS-modified MEROS-GFP; type: cell-based, rat; details: 2 mM DTT, FIG. 13
# Procedure: FIG. 13 is photograph of non-reducing polyacrylamide gel electrophoresis (PAGE) of 4-acetamido-4′-maleimidylstilbene-2, 2′-disulfonic acid (AMS)-modified MEROS-GFP in lysate from cells left untreated (left lane) or treated with 2 mM DTT (right lane). The lysates were either left untreated (−βME) (top) or were treated with β-mercaptoethanol (+βME) (bottom) prior to electrophoresis.
# Additional experiments were performed to confirm that the MEROS-GFP ratio reflected changes in its redox state in vivo. In these experiments, the redox state of MEROS-GFP was monitored using non-reducing SDS-PAGE in combination with the thiol-alkylating reagent, 4-acetamido-4′-maleimidylstilbene-2, 2′-disulfonic acid (AMS). In these experiments, INS-1 832/13 cells left untreated or treated with 2 mM DTT, were lysed with 1× SDS-PAGE sample buffer containing 25 mM AMS with or without 2-β-mercaptoethanol, boiled at 95° C. for 10 minutes, electrophoresed using SDS-PAGE, and immunoblotted using an anti-GFP antibody.
# [5] = system: MEROS-GFP (ER redox state) in NSC34 cells; test: Time course of MEROS-GFP ratio in NSC34 cells; type: cell-based; details: 1 mM DTT for 10 minutes, then wash, FIG. 14
# Procedure: FIG. 14 is a graph showing a time course of the MEROS-GFP ratio in NSC34 cells that are treated with 1 mM DTT for 10 minutes, and then washed. The MEROS-GFP ratio was calculated at each minute interval between one minute prior to treatment to four minutes after the wash. The bottom line represents the fluorescence observed with excitation at 473 nm, the black line represents the MEROS-GFP ratio, and the light grey line represents the fluorescence with excitation at 394 nm (n=3; S.D.).
# The MEROS-GFP ratio was also monitored in DTT-treated cells at different time points.
# [6] = system: MEROS-GFP (ER redox state) in INS-1 832/13 cells; test: MEROS-GFP ratio by flow cytometry in INS-1 832/13 cells; type: cell-based, rat; details: for Median MEROS-GFP ratio (FACS): normalized to untreated, DTT 0.2-10 mM, 1 mM H2O2 30 min, TM 5 μM, TG 10 nM 24 h or 1 μM 4 h, BreA 100 ng/mL, MG132, palmitate 0.2-0.5 mM, hIAPP 10 μM, 24 h, FIGS. 17-24
# Procedure: FIG. 15 is fluorescence-assisted cell sorting (FACS) data of INS-1 832/13 cells stably-transfected with MEROS-GFP following no treatment or treatment with DTT (0.2, 0.5, or 10 mM DTT). The data was collected using excitation wavelengths of 488 nm and 405 nm, and an emission spectrum of 510 nm.
# FIG. 16 is a histogram of FACS data of INS-1 832/13 cells stably-transfected with MEROS-GFP following no treatment or treatment with DTT (0.2 mM, 0.5 mM, or 10 mM DTT). The horizontal axis represents the MEROS-GFP ratio and the vertical axis represents the number of cells.
# FIG. 17 is a graph of the median MEROS-GFP ratio in INS-1 832/13 cells stably-transfected with MEROS-GFP following no treatment or treatment with DTT (0.2, 0.5, or 10 mM DTT). The MEROS-GFP values shown are normalized to the untreated values.
# FIG. 18 is two graphs showing data from FACS analysis of INS-1 832/13 cells stably-transfected with MEROS-GFP following no treatment or treatment with 1 mM H2O2 for 30 minutes. The right graph is a histogram of the MEROS-GFP ratio in INS-1 832/13 cells not treated or treated with 1 mM H202.
# FIG. 19 is a graph of the median MEROS-GFP ratio calculated in INS-1 832/13 cells using FACS analysis following no treatment or treatment with tunicamycin (TM) (5 μM; 24 hours), thapsigargin (TG) (10 nM; 24 hours), TG (1 μM; 4 hours), brefeldin A (BreA) (100 ng/mL; 24 hours), or MG132 ([…]; 24 hours). […] The data are normalized to the median MEROS-GFP ratio calculated for the untreated cells.
# The error bars represent ±S.D. The data are normalized to the median MEROS-GFP ratio calculated for the untreated cells.
# FIG. 24 is a graph of the median MEROS-GFP ratio in INS-1 832/13 cells left untreated or treatment with human islet amyloid polypeptide (IAPP) (10 μM; 24 hours), mouse IAPP (10 μM; 24 hours), or cytokines ([…] (5 ng/mL), INFγ (100 ng/mL), and TNFα (25 ng/mL); 24 hours)). The error bars represent ±S.D. The data are normalized to the median MEROS-GFP ratio calculated for the untreated cells.
# Flow cytometry was used to precisely monitor the MEROS-GFP ratio in vivo.
# Experiments were performed to study the relationship between the UPR and the heterogeneity of the redox state. In these experiments, both the redox state and the activation levels of the UPR were monitored in the same cells. To achieve this, a UPR reporter gene encoding the red fluorescent protein, mCherry, driven by the human BiP promoter was constructed. […] This BiP-mCherry reporter plasmid was transfected into INS-1 832/13 cells expressing MEROS-GFP, and FACS analysis was used to monitor the MEROS-GFP ratio and the activation levels of the UPR via BiP-mCherry in the same cells (FIG. 31). The activation levels of BiP-mCherry and the MEROS-GFP ratio were monitored following the induction of ER stress. In these experiments, INS-1 832/13 cells expressing MEROS-GFP were plated onto 6-well plates, treated with each compound for indicated times, and then harvested by trypsinization. After washing with phosphate buffered saline, cells were resuspended in the 11 mM glucose-Hanks buffered salt solution. Flow cytometry analyses were performed with LSRII (BD).
# INS-1 832/13 cells = test: Percentage of reduced cells (MEROS-GFP ratio >2) by flow cytometry after fatty acids; type: cell-based, rat; details: 0.5 mM palmitate plus 0.5 mM oleic or linoleic acid, 24 hours, FIG. 30
# Excerpt: The y-axis represents fluorescence following excitation using 488 nm and the x-axis represents fluorescence following excitation using 405 nm.
# The data for cells treated with palmitate is shifted to the right.
# The error bars indicate ±standard deviation (**p<0.01).
# MANF [7] = test: MANF mRNA and soluble MANF protein in human primary islets treated with thapsigargin; type: cell-based; details: thapsigargin 0.25 μM, 24 hours
# Procedure: The data shown were generated using quantitative real-time PCR (n=3; S.D.).
# In this experiment, human MANF was immunoprecipitated using a rabbit anti-human MANF antibody (Proteintech), and the same antibody was used to develop the immunoblot.
# (§1) Experiments were performed to determine if expression of soluble MANF is induced in pancreatic β-cells in response to endoplasmic reticulum stress. These experiments were performed using rodent pancreatic β-cell lines (INS-1 832/13 and MIN6), primary mouse and human islets, and two different chemical agents that induce endoplasmic reticulum stress (thapsigargin and tunicamycin). INS-1 832/13 cells were cultured in RPMI-1640 containing 10% fetal bovine serum, penicillin, streptomycin, sodium pyruvate, and 0.1% β-mercaptoethanol. Primary islets were obtained from Prodo, and plated into 6-well plates precoated with laminin V produced by 804G cells, and cultured in CMRL medium supplemented with fetal bovine serum, non-essential amino acids, sodium pyruvate, and antibiotics.
# (§2) A second set of experiments were performed using human primary islets from two human donors.
# MANF [8] = test: MANF protein (immunoblot) and mRNA (real-time PCR) in INS-1 832/13 cells treated with ER stress inducers; type: cell-based, rat; details: 24 hours; for MANF mRNA levels: 5 μM tunicamycin or 20 nM thapsigargin, FIG. 2
# Procedure: FIG. 1 is an immunoblot showing the levels of MANF protein in concentrated medium from a culture of a rat pancreatic β-cell line (INS-1 832/13) or in lysate from the rat pancreatic β-cell line (INS-1 832/13) after no treatment or treatment with thapsigargin (50 nM) or tunicamycin (0.5 μg/mL) for 24 hours.
# FIG. 2 is a graph showing the relative expression of MANF mRNA in a rat pancreatic β-cell line (INS-1 832/13) cultured under the following conditions: 11 mM glucose (24 hours); 25 mM glucose (24 hours); 25 mM glucose (48 hours); 25 mM glucose (72 hours); 11 mM glucose and 5 μM tunicamycin (TM) (24 hours); or 11 mM glucose and 20 nM thapsigargin (Tg) (24 hours). The data shown were generated using quantitative real-time PCR (n=3, S.D.).
# as §1
# MANF [9] = test: MANF mRNA in mouse primary islets treated with thapsigargin (real-time PCR); type: cell-based; details: 0.5 μM thapsigargin, 6 hours, FIG. 3
# Procedure: FIG. 3 is a graph showing the relative expression of MANF, WFS1, TXNIP, and CHOP mRNA in mouse primary islets cultured five days with 5 mM glucose (LG), 11 mM glucose (MG), or 25 mM glucose (HG), or five days with 5 mM glucose (LG) and 6 hours with 0.5 μM thapsigargin (TG). The data shown were generated using quantitative real-time PCR (n=3; S.D.).
# as §1, §2
compound,measurement,setting,value
"O[C@H](CS)[C@H](O)CS (racemic) [DTT, dithiothreitol]",MEROS-GFP ratio (plate reader),[1],increased the MEROS-GFP ratio in a dose-dependent manner
same,MEROS-GFP fluorescence from 476 nm excitation,[2],significantly increased
same,Average MEROS-GFP ratio in the pilot screen,[3],0.069 (S.D. =0.006)
same,"Redox state of MEROS-GFP (AMS, non-reducing SDS-PAGE)",[4],fully reduced MEROS-GFP in vivo
same,Time to reduction of the ER (MEROS-GFP ratio),[5],ER could be reduced within a few minutes
same,Ratio of fluorescence from excitation at 488 nm versus 405 nm (FACS),"[6]; DTT 0.2, 0.5, 10 mM, FIGS. 15 and 16",dose dependent increase
same,Median MEROS-GFP ratio (FACS),[6],increased the median MEROS-GFP ratio in a dose-dependent manner
OO [H2O2],MEROS-GFP ratio (plate reader),[1],did not change the MEROS-GFP ratio
same,Median MEROS-GFP ratio (FACS),[6],did not change the MEROS-GFP ratio
CC(C)C[C@@H](C=O)NC(=O)[C@H](CC(C)C)NC(=O)[C@H](CC(C)C)NC(=O)OCc1ccccc1 [MG 132] (Cbz-Leu-Leu-Leu-aldehyde),Median MEROS-GFP ratio (FACS),[6],increased
C[C@H]1CCC/C=C/[C@@H]2C[C@H](O)C[C@H]2[C@H](O)/C=C/C(=O)O1 [brefeldin A],Median MEROS-GFP ratio (FACS),[6],increased
CCCCC/C=C\C/C=C\CCCCCCCC(=O)O [linoleic acid],Palmitate-induced reduced ER (percentage of reduced cells),INS-1 832/13 cells,significantly suppressed the ability of palmitate to create a reduced ER
CCCCCCCC/C=C\CCCCCCCC(=O)O [oleic acid],Palmitate-induced reduced ER (percentage of reduced cells),INS-1 832/13 cells,significantly suppressed the ability of palmitate to create a reduced ER
C/C=C(/C)C(=O)O[C@H]1C(C)=C2[C@H]([C@@H]1OC(=O)CCCCCCC)[C@@](C)(OC(C)=O)C[C@H](OC(=O)CCC)[C@@]1(O)[C@H]2OC(=O)[C@@]1(C)O [thapsigargin],Soluble MANF protein in the extracellular medium,MANF [7]; FIGS. 5 and 6,production and release of soluble MANF protein into the extracellular medium
same,MANF mRNA expression,"MANF [7]; two donors, FIG. 4",significant increase in MANF mRNA expression
same,MANF mRNA levels,MANF [8],Elevated levels of MANF mRNA
same,Soluble MANF protein in the medium,"MANF [8]; thapsigargin 50 nM, FIG. 1",detected in the medium
same,Median MEROS-GFP ratio (FACS),[6],increased
same,MANF mRNA expression,MANF [9],significant increase in MANF mRNA expression
"human islet amyloid polypeptide (hIAPP): human islet amyloid polypeptide, physiological inducer of ER stress (KCNTATCATQRLANFLVHSSNNFGAILSSTNVGSNTY; not fully specified (C-terminus, bridges); cysteine pairing not given here; UniProt P10997 34-70, looked up)",Median MEROS-GFP ratio (FACS),[6],increased
tunicamycin,MANF mRNA levels,MANF [8],Elevated levels of MANF mRNA
same,Median MEROS-GFP ratio (FACS),[6],increased
